Read-outs that look alike come from different tables or passages of the source.
How the values were obtained:
Type in all cases: physicochemical
[1] = Solid-state (bulk) stability after 9 weeks storage, HPLC; parameters: key to % Degradation (% peak area @ 50° C.-% peak area @ 4° C.): --: No peaks present at this relative retention time; conditions: for Solid state stability in words: qualitative statement, fumarate; for degraded at 1512 h: solid state, read-out: % Degradation (% peak area @ 50° C.-% peak area @ 4° C.)
Procedure: Approximately 1 mg of each of the free base, hydrochloride, hydrobromide and fumarate salts of Compound (I) were accurately weighed into small glass vials. These were stored for 9 weeks at each of 4° C./ambient humidity, 40° C./ambient humidity, 40° C./75% RH and 50° C./ambient humidity. The samples were then assayed using the following stability indicating HPLC method. A mobile phase consisting of 0.05 M potassium dihydrogen orthophosphate adjusted to pH2 with phosphoric acid (90%) and acetonitrile (far UV) (10%), was pumped through a "Zorbax SB-CN" 150×4.6 mm column (40° C.) at a flow rate of 1 ml/min with UV detection at 225 nm.
The samples with the exception of the free base were prepared by dissolving them in the mobile phase in a 25 ml volumetric flask. The free base was dissolved in a few drops of methanol before diluting with the mobile phase.
The stability of the samples was quantified by investigating the appearance of new peaks in the chromatograms of stored samples and the increase in peaks present compared to control samples stored at 4° C.

[2] = Oxidative stability in 90% PEG 400 with and without hydrogen peroxide; conditions: for Stability to oxidative degradation, in words: qualitative statement, fumarate
Description: (§1) Soft gelatin capsule formulations are an attractive delivery system for Compound (I) as they improve in vivo dissolution and content uniformity on manufacture. The compound (I) can be formulated as a liquid fill soft gelatin capsule. However, oxidative degradation often limits the shelf life of such formulations. PEG 400 is representative of a typical liquid fill diluent used for such a purpose. The following study was designed to determine whether oxidative degradation occurs with Compound (I) in such a formulation, and whether the fumarate salt provides protection against oxidative degradation. 1 mg/mL solutions of Compound (I) as the free base, Compound (I) as the hydrochloride salt and Compound (I) as the fumarate salt were prepared in 90% PEG 400 (BDH) and 10% water (Milli-Q). 10% water was added to the formulations to mimic the ingress of water from the soft gelatin capsule shell. […] However, for ease of solution preparation, the hydrochloride salt was used instead.
Hydrogen peroxide (BDH) to a final concentration of 0.3% w/w was added to the formulations to provide an oxidative stress. A control formulation without hydrogen peroxide was also used in the study. 1 mL of each formulation was sealed into 2 mL HPLC vials ("Cromacol") and placed in a thermostated oven at 40° C. Samples were taken at 1.5 and 3 days and stored frozen (-20° C.) prior to assay. The samples were diluted and analysed using the stability indicating HPLC assay as described above. Degradation was expressed as % Compound (I) remaining.

[3] = Hygroscopicity: moisture uptake in moisture microbalance; conditions: for Hygroscopicity at 30° C. and 90% RH: moisture uptake; for Hygroscopicity in words: qualitative statement, fumarate
Procedure: Approximately 10 mg of each of the free base and fumarate salts of Compound (I) were exposed to 8 different relative humidities (RHs) between 0 and 94% at 30° C. in the Surface Measurement Systems Ltd moisture microbalance. The samples were allowed to reach equilibrium at each of these RHs and the change in weight from the initial value when the sample was first placed in the balance was calculated. The data was used to construct the moisture sorption isotherms for the materials. The hygroscopicity of the materials was compared by calculating the moisture uptake at 90%RH, which was as follows: […]

[4] = Saturated solubility of free base and fumarate salt in water (HPLC); conditions: for solubility at 16 h: saturated solubility in water (MilliQ), 16 hours at room temperature; for Solubility in words: water, qualitative statement, fumarate
Procedure: For both the free base and fumarate salt, approximately 50 mg of solid bulk material was accurately weighed into a 1.5 mL plastic "Eppendorf" tube (Sigma). 0.3 mL of water (MilliQ) was then added to the tubes. The tubes were then vortex mixed at 1,300 rpm ("LKB") for 16 hours at room temperature. The supematant was separated from undissolved material by centrifugation at 13,000 rpm for 20 minutes ("Heraeus Biofuge 13"), then diluted and assayed for Compound (I) by HPLC. This assay used a mobile phase of acetonitrile (20%), water (80%) and trifluoroacetic acid (0.1%) and a 150×4.2 mm "Zorbax SB CN" column at 40° C. with U.V. detection at 220 nm.

[5] = Solubility in the 90% PEG 400 / 10% water formulation (observation); conditions: 1 mg/mL in 90% PEG 400 and 10% water
Description: as §1

[6] = relative retention time 0.40, 9 weeks at 50° C.
[7] = relative retention time 0.60, 9 weeks at 50° C.
[8] = relative retention time 0.77, 9 weeks at 50° C.
[9] = relative retention time 0.85, 9 weeks at 50° C.
[10] = relative retention time 0.91, 9 weeks at 50° C.
[11] = relative retention time 1.66, 9 weeks at 50° C.
[12] = relative retention time 1.93, 9 weeks at 50° C.
[13] = relative retention time 0.59, 9 weeks at 50° C.

## CNS(=O)(=O)Cc1ccc2[nH]cc(C[C@H]3CCCN3C)c2c1.O=C(O)/C=C/C(=O)O [Fumarate salt, (R)-5-(methylaminosulphonylmethyl)-3-(N-methylpyrrolidin-2-ylmethyl)-1H-indole fumarate]
[1]; 9 weeks at 50° C.
  Solid-state degradation in words: had not degraded at all after 9 weeks 50 °C
[1]
  Solid state stability in words: most stable in the solid state
[1]; listed as fumarate salt of (I)
  Solid state stability in words: excellent solubility and solid state stability
[1]; [6]
  % Degradation (% peak area @ 50° C.-% peak area @ 4° C.): --
[1]; [7]
  % Degradation (% peak area @ 50° C.-% peak area @ 4° C.): --
[1]; [8]
  % Degradation (% peak area @ 50° C.-% peak area @ 4° C.): --
[1]; [9]
  % Degradation (% peak area @ 50° C.-% peak area @ 4° C.): --
[1]; [10]
  % Degradation (% peak area @ 50° C.-% peak area @ 4° C.): --
[1]; [11]
  % Degradation (% peak area @ 50° C.-% peak area @ 4° C.): --
[1]; [12]
  % Degradation (% peak area @ 50° C.-% peak area @ 4° C.): --
[1]; [13]
  degraded at 1512 h: 0%
[2]; 90% PEG 400, 40° C., both time points (1.5 and 3 days)
  Degradation rate compared with the hydrochloride: significantly lower (analysis of variance p<0.001) than the hydrochloride at both time points
[2]
  Stability to oxidative degradation, in words: significant protection against degradation in the formulation
[2]; listed as fumarate salt of (I)
  Stability to oxidative degradation, in words: unexpectedly improved stability to oxidative degradation
[3]
  Hygroscopicity at 30° C. and 90% RH: 0.2 % w/w
  Hygroscopicity in words: not accompanied by increased hygroscopicity
[3]; listed as fumarate salt of (I)
  Hygroscopicity in words: non-hygroscopic
[4]
  solubility at 16 h: 67.5 mg/mL
  Solubility in words: Increased solubility
[4]; listed as fumarate salt of (I)
  Solubility in words: excellent solubility

## CNS(=O)(=O)Cc1ccc2[nH]cc(C[C@H]3CCCN3C)c2c1 [Free base, (R)-5-(methylaminosulphonylmethyl)-3-(N-methylpyrrolidin-2-ylmethyl)-1H-indole]
[1]; 9 weeks at 50° C.
  New drug related peaks: 4 new drug related peaks
  Solid-state degradation in words: measurable degradation
[1]; all peaks, 9 weeks at 50° C. vs 4° C., 90720 min
  total increase in % peak area: 0.32%
[1]; [13]
  % Degradation (% peak area @ 50° C.-% peak area @ 4° C.): --
[1]; [8]
  % Degradation (% peak area @ 50° C.-% peak area @ 4° C.): --
[1]; [9]
  % Degradation (% peak area @ 50° C.-% peak area @ 4° C.): --
[1]; [6]
  degraded at 1512 h: 0.05%
[1]; [7]
  degraded at 1512 h: 0.01%
[1]; [10]
  degraded at 1512 h: 0.02%
[1]; [11]
  degraded at 1512 h: 0.17%
[1]; [12]
  degraded at 1512 h: 0.03%
[5]
  Solubility in the PEG 400 formulation: not very soluble
[3]
  Hygroscopicity at 30° C. and 90% RH: 0.2 % w/w
[4]
  solubility at 16 h: 0.12 mg/mL
